Key:
[1] = Light Stability of crystalline form A; type: physicochemical; conditions: light 4500+/−500 Lux
Procedure: A layer of crystalline form A having a thickness of less than 5 mm was place in a flat weighing bottle. […] Samples were taken out at 6 days, 11 days and 16 days and examined for purity by HPLC, appearance and crystalline form. The conditions for the HPLC measurements are as shown below. • Instrument: Agilent 1200HPLC • Column: Agilent Eclipse XDB-C18 4.6*150 mm, 5 μm • Detection wavelength: 254 nm • Mobile phase: A phase 10 mM ammonium acetate (pH=3.5) and B phase acetonitrile [table]

[2] = Humidity Stability of crystalline form A; type: physicochemical; conditions: 25° C., RH 90%+/−5%
Procedure: A layer of crystalline form A having a thickness of less than 5 mm was place in a flat weighing bottle. […] The conditions for the HPLC measurements are as shown below. • Instrument: Agilent 1200HPLC • Column: Agilent Eclipse XDB-C18 4.6*150 mm, 5 μm • Detection wavelength: 254 nm • Mobile phase: A phase 10 mM ammonium acetate (pH=3.5) and B phase acetonitrile [table]

CCOc1nc2cccc(C(=O)O)c2n1Cc1ccc(-c2ccccc2-c2noc(=O)[nH]2)cc1 [Form A]
RT* (min.) 30.66 (HPLC peak) ([1]; 6 days): 0.02%
Appearance ([1]; 11 days): Light yellow
Crystalline form ([1]; 11 days): Form A
RT* (min.) 2.39 (HPLC peak) ([1]; 11 days): 0.04%
RT* (min.) 2.89 (HPLC peak) ([1]; 11 days): 0.14%
RT* (min.) 3.9 (HPLC peak) ([1]; 11 days): 0.61%
RT* (min.) 5.79 (HPLC peak) ([1]; 11 days): 0.02
RT* (min.) 13.2 (azilsartan peak, purity by HPLC) ([1]; 11 days): 98.71%
RT* (min.) 20.55 (HPLC peak) ([1]; 11 days): 0.07%
RT* (min.) 22.8 (HPLC peak) ([1]; 11 days): 0.06%
RT* (min.) 23.6 (HPLC peak) ([1]; 11 days): 0.03%
RT* (min.) 26.96 (HPLC peak) ([1]; 11 days): 0.01%
RT* (min.) 27.5 (HPLC peak) ([1]; 11 days): 0.29%
RT* (min.) 28.81 (HPLC peak) ([1]; 11 days): 0.01%
RT* (min.) 30.66 (HPLC peak) ([1]; 11 days): 0.03%
Appearance ([1]; 16 days): Light yellow
Crystalline form ([1]; 16 days): Form A
RT* (min.) 2.39 (HPLC peak) ([1]; 16 days): 0.05%
RT* (min.) 2.89 (HPLC peak) ([1]; 16 days): 0.22%
RT* (min.) 3.9 (HPLC peak) ([1]; 16 days): 0.34%
RT* (min.) 5.79 (HPLC peak) ([1]; 16 days): — (“—” refers to the peak area is less than 3000 or there is no peak)
RT* (min.) 13.2 (azilsartan peak, purity by HPLC) ([1]; 16 days): 99.24%
RT* (min.) 20.55 (HPLC peak) ([1]; 16 days): — (“—” refers to the peak area is less than 3000 or there is no peak)
RT* (min.) 22.8 (HPLC peak) ([1]; 16 days): 0.04%
RT* (min.) 23.6 (HPLC peak) ([1]; 16 days): 0.01%
RT* (min.) 26.96 (HPLC peak) ([1]; 16 days): — (“—” refers to the peak area is less than 3000 or there is no peak)
RT* (min.) 27.5 (HPLC peak) ([1]; 16 days): 0.09%
RT* (min.) 28.81 (HPLC peak) ([1]; 16 days): — (“—” refers to the peak area is less than 3000 or there is no peak)
RT* (min.) 30.66 (HPLC peak) ([1]; 16 days): — (“—” refers to the peak area is less than 3000 or there is no peak)
Appearance ([2]; 6 days): White or off-
Crystalline form ([2]; 6 days): Form A
RT* (min.) 2.39 (HPLC peak) ([2]; 6 days): — (“—” refers to the peak area is less than 3000 or there is no peak)
RT* (min.) 2.89 (HPLC peak) ([2]; 6 days): 0.02%
RT* (min.) 3.9 (HPLC peak) ([2]; 6 days): 0.31%
RT* (min.) 5.79 (HPLC peak) ([2]; 6 days): 0.01
RT* (min.) 13.2 (azilsartan peak, purity by HPLC) ([2]; 6 days): 99.48%
RT* (min.) 20.55 (HPLC peak) ([2]; 6 days): — (“—” refers to the peak area is less than 3000 or there is no peak)
RT* (min.) 22.8 (HPLC peak) ([2]; 6 days): 0.05%
RT* (min.) 23.6 (HPLC peak) ([2]; 6 days): 0.02%
RT* (min.) 26.96 (HPLC peak) ([2]; 6 days): — (“—” refers to the peak area is less than 3000 or there is no peak)
RT* (min.) 27.5 (HPLC peak) ([2]; 6 days): 0.07%
RT* (min.) 28.81 (HPLC peak) ([2]; 6 days): — (“—” refers to the peak area is less than 3000 or there is no peak)
RT* (min.) 30.66 (HPLC peak) ([2]; 6 days): 0.03%
Appearance ([2]; 11 days): White or off-
Crystalline form ([2]; 11 days): Form A
RT* (min.) 2.39 (HPLC peak) ([2]; 11 days): — (“—” refers to the peak area is less than 3000 or there is no peak)
RT* (min.) 2.89 (HPLC peak) ([2]; 11 days): 0.02%
RT* (min.) 3.9 (HPLC peak) ([2]; 11 days): 0.33%
RT* (min.) 5.79 (HPLC peak) ([2]; 11 days): — (“—” refers to the peak area is less than 3000 or there is no peak)
RT* (min.) 13.2 (azilsartan peak, purity by HPLC) ([2]; 11 days): 99.51%
RT* (min.) 20.55 (HPLC peak) ([2]; 11 days): — (“—” refers to the peak area is less than 3000 or there is no peak)
RT* (min.) 22.8 (HPLC peak) ([2]; 11 days): 0.04%
RT* (min.) 23.6 (HPLC peak) ([2]; 11 days): 0.02%
RT* (min.) 26.96 (HPLC peak) ([2]; 11 days): — (“—” refers to the peak area is less than 3000 or there is no peak)
RT* (min.) 27.5 (HPLC peak) ([2]; 11 days): 0.06%
RT* (min.) 28.81 (HPLC peak) ([2]; 11 days): — (“—” refers to the peak area is less than 3000 or there is no peak)
RT* (min.) 30.66 (HPLC peak) ([2]; 11 days): 0.03%
Appearance ([2]; 16 days): White or off-
Crystalline form ([2]; 16 days): Form A
RT* (min.) 2.39 (HPLC peak) ([2]; 16 days): — (“—” refers to the peak area is less than 3000 or there is no peak)
RT* (min.) 2.89 (HPLC peak) ([2]; 16 days): 0.01%
RT* (min.) 3.9 (HPLC peak) ([2]; 16 days): 0.32%
RT* (min.) 5.79 (HPLC peak) ([2]; 16 days): — (“—” refers to the peak area is less than 3000 or there is no peak)
RT* (min.) 13.2 (azilsartan peak, purity by HPLC) ([2]; 16 days): 99.52%
RT* (min.) 20.55 (HPLC peak) ([2]; 16 days): — (“—” refers to the peak area is less than 3000 or there is no peak)
RT* (min.) 22.8 (HPLC peak) ([2]; 16 days): 0.04%
RT* (min.) 23.6 (HPLC peak) ([2]; 16 days): 0.01%
RT* (min.) 26.96 (HPLC peak) ([2]; 16 days): — (“—” refers to the peak area is less than 3000 or there is no peak)
RT* (min.) 27.5 (HPLC peak) ([2]; 16 days): 0.05%
RT* (min.) 28.81 (HPLC peak) ([2]; 16 days): — (“—” refers to the peak area is less than 3000 or there is no peak)
RT* (min.) 30.66 (HPLC peak) ([2]; 16 days): 0.02%
